# Assay results: patent US9243036B2, “Anti-microbial activity of synthetic peptides” (THE UNITED STATES OF AMERICA, as represented by the …, priority 2012, dated 2016)
# Residues, ends and D or L forms follow the SMILES beside them.
# Columns and labels:
# [1] = system: E. coli cells; assay: Whole-cell ELISA binding of biotinylated peptide; settings: EC5 50 μg/ml; p<0.001
# Procedure: (§1) ELISA. Log-phase cultures of bacteria were centrifuged at 3,000×g. The cell pellet was resuspended and 10-fold serial dilutions were made in 1×PBS. Bacterial cell suspension at a concentration of 10^3 CFU was coated to the wells of 96-well micro plate (Becton Dickinson, Bedford, Mass.) and incubated overnight at RT. Subsequently, cells were fixed in ethanol (Aldrich Chemical Company, Milwaukee, Wis.) for 10 minutes (min) and the plates were air-dried. Wells were blocked with 5% bovine serum albumin (BSA) (Sigma, St. Louis, Mo.) for 60 min at room temperature (RT), rinsed with PBS and then EC5 peptide suspended in phosphate buffered saline (PBS) at a final concentration of 50 μg/ml were added to all the wells and incubated for 15 min. Following incubation, wells were washed 3 times with PBST buffer (PBS pH 7.4, 0.01% Tween 20). The wells were further incubated with 1:10,000 dilution of streptavidin-HRP conjugate (Upstate, Temecula, Calif.) for 15 min and washed with PBST buffer. Tetramethylbenzidine (TMB) membrane peroxidase substrate (Zymed Laboratories, Carlsbad, Calif.) system was used to detect the enzyme label in accordance with the manufacturer's instructions. The color development in the 96-well plate was recorded by using SYNERGY 4™ BioTek micro plate reader (BioTek Instruments, Winooski, Vt.) at 490 nm wavelength.
# [2] = system: K pneumoniae; assay: Whole-cell ELISA binding of biotinylated peptide; settings: EC5 50 μg/ml
# Procedure: as §1
# [3] = system: S. epidermidis; assay: Whole-cell ELISA binding of biotinylated peptide; settings: EC5 50 μg/ml
# Procedure: as §1
# [4] = system: E. coli; assay: Qdot-based fluorometry binding assay; settings: EC5 50 μg/ml; p<0.0001
# Procedure: (§2) The assay was carried out as described earlier (21,24). Bacterial cell suspensions at a concentration of 10^3 CFU were incubated with EC5 (50 μg/ml) in an eppendorf tube at room temperature for 60 min. Following three washes with 1×PBS pH 7.4 the pellet was resuspended in […] of 1:10,000 dilution of streptavidin-conjugated Q dots (QD 605) solution (Invitrogen, Gaithersburg, Md.). The fluorometric counts were measured using SYNERGY 4™ BioTek micro plate reader (BioTek Instruments, Winooski, Vt.).
# (§3) Binding of the peptide to the bacteria was detected using Qdot-nanocrystal cores conjugated to streptavidin. Analysis of the bacterial suspension binding to the peptide was performed in a micro-well plate using a fluorescence plate reader (SYNERGY 4™, Biotek, USA). Excitation was set to a spectral range of 360-485 nm and emission was at 605 nm. […] The analysis also confirmed that EC5 binds to P. aeruginosa cells.
# [5] = system: P. aeruginosa cells; assay: Qdot-based fluorometry binding assay; settings: EC5 50 μg/ml
# Procedure: as §2, §3
# [6] = system: chicken red blood cells (ch-RBCs); assay type: cell-based
# Procedure: The ability of EC5 to induce hemolysis of chicken red blood cells (ch-RBCs) was assessed as previously described (Pathak, S. and Chauhan, V. S. (2011) Antimicrob. Agents Chemother. 55, 2178-2188). Red blood cells were harvested and washed with phosphate-buffered saline (PBS). 1% (vol/vol) suspension was made with PBS. 100 μl and 50 μl of this RBC suspension were transferred to 96-well microtiter plates. Two-fold serial dilutions of the peptide samples were prepared and added to the RBCs. The reaction mixture was incubated at 37° C. for 24 h in microtiter plates. Results were visually determined.
# The hemolytic activity of EC5 against chRBCs was determined as a measure of peptide toxicity toward higher eukaryotic cells (Yount, N. Y., et al., (2011) PLoS. One. 6, e26727; Tachi, T., et al., Biochemistry 41, 10723-10731). MHC is the maximal peptide concentration that produces no hemolysis after 24 h of incubation at 37° C.
# [7] = system: E. coli; assay: Cytoplasmic membrane depolarization assay (diSC3-5) with parallel CFU plating; assay type: cell-based; settings: EC5 at 8 μg/ml and 16 μg/ml
# Procedure: (§4) Membrane depolarization activity (Δψ) of the peptide was determined with intact E. coli and P. aeruginosa cells and the membrane potential-sensitive fluorescent dye, 3,3′-dipropylthiadicarbocyanine Iodide (diSC (3)5) (Invitrogen, Oregon), according to described methods (Sims, P. J., et al (1974) Biochemistry 13, 3315-3330). Briefly, bacterial cells of mid-logarithmic phase were harvested by centrifugation and washed twice with HEPES buffer (5 mM HEPES, 5 mM glucose, pH 7.6). The cells were suspended in the same buffer to an OD of 0.05. The cell suspension was incubated with […] diSC (3)5 until maximal uptake of the dye. 100 mM KCl was added to equilibrate the cytoplasmic and external potassium ion concentration of peptide, and fluorescence was monitored at an excitation wavelength of 622 nm and an emission wavelength of 670 nm. Polymyxin B was used as a positive control and S. aureus cells were used as negative control. Simultaneously the cells were plated on NA plates and incubated at 37° C. overnight to assess the number of CFU.
# (§5) Cytoplasmic depolarization assay(Δψ) was performed using the membrane potential sensitive dye 3,3′-dipropylthiadicarbocyanine iodide (diSC3-5) (Zang, L. et al., (2001) J. Biol. Chem. 276, 35714-35722). This dye can cross the outer membrane of the bacterial cell and become concentrated in the cytoplasmic membrane and thereby it self-quenches its own fluorescence. Upon addition of a membrane-permeabilizing agent the dye is released with consequent increase in the fluorescence. EC5 at 8 μg/ml and 16 μg/ml caused rapid depolarization of the cytoplasmic membrane in both E. coli and P. aeruginosa resulting in the release of diSC3-5 within 5 min (FIG. 9C). […] However Polymyxin B even at its MIC of 0.5 μg/ml caused slow release of diSC3-5 when compared to EC5.
# [8] = system: P. aeruginosa; assay: as above; assay type: cell-based; settings: EC5 at 8 μg/ml and 16 μg/ml
# Procedure: as §4, §5
# [9] = system: E. coli; assay: ATP inhibition (BACTITER-GLO); assay type: cell-based; settings: EC5 at lowest concentration of 3.125 μg/ml
# Procedure: (§6) The effects of EC5 on ATP inhibition as a measure of metabolic activity of E. coli and P. aeruginosa cells was determined by using BACTITER-GLO™ assay kit (Promega) according to the manufacturer's protocol. The luminescent signal correlates with the number of viable microbial cells based on the amount of ATP present after the addition of different concentrations of the peptide. Polymyxin B was included as a positive control.
# (§7) ATP inhibition as a measurement of microbial viability was measured using BacTiter-Glo kit ([…]). Intracellular ATP levels of E. coli and P. aeruginosa were examined after the addition of different concentrations of EC5 (FIG. 9D). ATP inhibition began 5 min after the addition of EC5 at lowest concentration of 3.125 μg/ml which was slightly lower than the MIC of 8 μg/ml for E. coli and P. aeruginosa.
# [10] = system: P. aeruginosa; assay: ATP inhibition (BACTITER-GLO); assay type: cell-based; settings: EC5 at lowest concentration of 3.125 μg/ml
# Procedure: as §6, §7
compound,measurement,setting,value
"CC[C@H](C)[C@H](NC(=O)[C@H](CCCCN)NC(=O)[C@H](CCCNC(=N)N)NC(=O)[C@H](Cc1ccccc1)NC(=O)[C@H](CC(C)C)NC(=O)[C@H](CC(C)C)NC(=O)[C@@H](N)CCCNC(=N)N)C(=O)N[C@@H](CCCNC(=N)N)C(=O)N[C@@H](CCCNC(=N)N)C(=O)N[C@@H](CC(C)C)C(=O)N[C@@H](CCCCN)C(=O)N[C@@H](CCCNC(=N)N)C(=O)O [EC5, RLLFRKIRRLKR] (H-RLLFRKIRRLKR-OH; N-terminus and C-terminus assumed)",binding to E. coli cells,[1],significant binding efficiency
same,binding to K pneumoniae,[2],did not bind
same,binding to S. epidermidis,[3],did not bind
same,binding to E. coli (fluorometric counts),[4],able to bind
same,binding to P. aeruginosa cells (fluorometric counts),[5],binds
same,therapeutic index (MIC versus concentrations inducing hemolysis),[6],favorable
same,time to complete inhibition of CFU,[7],≤ 5 min
same,time to release of diSC3-5 (depolarization of the cytoplasmic membrane),[7],≤ 5 min
same,time to complete inhibition of CFU,[8],≤ 5 min
same,time to release of diSC3-5 (depolarization of the cytoplasmic membrane),[8],≤ 5 min
same,time at which ATP inhibition began,[9],5 min
same,time at which ATP inhibition began,[10],5 min
